The source of these data is ChEMBL document CHEMBL1153157, “Discovery of benzimidazole-diamide finger loop (Thumb Pocket I) allosteric inhibitors of HCV NS5B polymerase: Implementing parallel synthesis for rapid linker optimization” (Bioorg Med Chem Lett, 2010).

For orientation: IC50 means the midpoint of a concentration-inhibition curve. As usually defined, the EC50 is the concentration needed to bring the measured effect to its halfway point. One may read the half-life as the time in which the quantity being followed falls by half. What is called logD is the decadic logarithm of the distribution of all forms, ionised or not, between an organic phase and buffer at a given pH. High values mean higher lipophilicity, low ones lower lipophilicity. The solubility is the dissolved amount per volume that the medium holds. Higher therefore signals much dissolved substance.

Data set [1] concerns Hepatitis C virus. Kind of data set: Inhibition of N-terminal hexahistidine tagged HCV 1b NS5B polymerase expressed in baculovirus infected Sf21 cells after 90 mins by SPA. The arrangement: species or system Hepatitis C virus subtype 1b. The note with it: Sf21, 1.5 h.
For data set [2], the system named is Hepatitis C virus. Nature of the data set: Antiviral activity against Hepatitis C virus subtype 1b by cell-based replicon assay. The data set is classed as functional, organism-based, Hepacivirus hominis. The note with it: genotype 1b. (Replicon systems follow genome replication, usually without infectious particles.)
For data set [3], the target named is Cytochrome P450 2D6 (Homo sapiens, UniProt P10635). Nature of the data set: Inhibition of human liver CYP2D6. The class given is ADME.
Data set [4] can be described thus: (§1) Half life in human liver microsomes at 10 uM. The class given is ADME, Microsome. The note with it: liver microsomes. A general note: Liver microsomes are vesicles of endoplasmic reticulum, rich in cytochrome P450 enzymes.
Data set [5] deals with Enterovirus C. Kind of data set: Inhibition of Poliovirus RNA dependent RNA polymerase expressed in Escherichia coli BL21 (DE3) up to 200 uM after 90 mins by SPA.
For data set [6], the species on record is Bos taurus. Kind of data set: Inhibition of calf thymus DNA-dependent RNA polymerase up to 200 uM after 120 mins.
In data set [7] the target is Cytochrome P450 2C19 (Homo sapiens, UniProt P33261). Kind of data set: Inhibition of human liver CYP2C19. The class given is ADME.
Data set [8] has as its target T1, Cytochrome P450 1A2 (Homo sapiens, UniProt P05177).
T1 sequence (P05177 whole entry): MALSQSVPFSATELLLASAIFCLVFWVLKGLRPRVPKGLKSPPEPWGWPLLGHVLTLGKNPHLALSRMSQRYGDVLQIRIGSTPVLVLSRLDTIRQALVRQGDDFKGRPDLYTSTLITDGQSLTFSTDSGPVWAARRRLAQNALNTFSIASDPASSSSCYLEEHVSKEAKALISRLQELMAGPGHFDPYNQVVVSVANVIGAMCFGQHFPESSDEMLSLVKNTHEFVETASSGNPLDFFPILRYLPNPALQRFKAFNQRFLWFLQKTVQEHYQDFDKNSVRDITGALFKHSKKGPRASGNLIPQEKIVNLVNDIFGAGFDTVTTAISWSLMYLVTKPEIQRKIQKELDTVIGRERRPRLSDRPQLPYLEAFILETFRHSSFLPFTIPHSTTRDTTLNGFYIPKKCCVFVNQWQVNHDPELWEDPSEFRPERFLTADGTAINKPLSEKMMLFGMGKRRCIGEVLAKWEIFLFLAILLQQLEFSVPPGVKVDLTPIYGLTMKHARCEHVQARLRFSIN
Nature of the data set: Inhibition of human liver CYP1A2. The class given is ADME.

Data set [9] in a line: Lipophilicity, log D at pH 7.4. The data set is classed as physicochemical. The note with it: buffer.
Data set [10] has as its target Cytochrome P450 2C9 (Homo sapiens, UniProt P11712). Kind of data set: Inhibition of human liver CYP2C9. The data set is classed as ADME.
Data set [11] has as its target Cytochrome P450 3A4 (Homo sapiens, UniProt P08684). Nature of the data set: Inhibition of human liver CYP3A4. The class given is ADME.
The nature of data set [12]: Aqueous solubility at pH 7.2. The data set is classed as physicochemical. The note with it: buffer.
Data set [13] deals with Liver microsomes. The data set is described as §1. The class given is ADME, Microsome. The note with it: microsomes, 10 µM.

Values after ≈ are worked out from the molar mass of the structure shown. Active and inactive are the calls of the source. No cut-off for these calls is given here.

Sequence of Cytochrome P450 2C19 (P33261 whole entry): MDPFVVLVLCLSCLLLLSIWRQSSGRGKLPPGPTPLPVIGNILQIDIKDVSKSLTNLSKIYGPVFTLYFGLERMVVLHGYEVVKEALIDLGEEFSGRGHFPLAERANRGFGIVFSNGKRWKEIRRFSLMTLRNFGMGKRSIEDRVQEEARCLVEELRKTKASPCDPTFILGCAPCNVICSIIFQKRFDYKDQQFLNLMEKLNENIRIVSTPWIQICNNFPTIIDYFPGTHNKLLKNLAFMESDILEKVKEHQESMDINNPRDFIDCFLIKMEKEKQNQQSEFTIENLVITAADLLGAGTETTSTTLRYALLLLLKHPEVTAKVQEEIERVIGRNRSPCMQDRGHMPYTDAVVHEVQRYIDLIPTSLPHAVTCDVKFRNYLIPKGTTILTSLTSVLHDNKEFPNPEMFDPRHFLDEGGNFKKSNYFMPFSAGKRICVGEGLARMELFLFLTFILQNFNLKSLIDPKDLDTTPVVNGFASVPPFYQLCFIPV
Sequence of Cytochrome P450 2C9 (P11712 whole entry): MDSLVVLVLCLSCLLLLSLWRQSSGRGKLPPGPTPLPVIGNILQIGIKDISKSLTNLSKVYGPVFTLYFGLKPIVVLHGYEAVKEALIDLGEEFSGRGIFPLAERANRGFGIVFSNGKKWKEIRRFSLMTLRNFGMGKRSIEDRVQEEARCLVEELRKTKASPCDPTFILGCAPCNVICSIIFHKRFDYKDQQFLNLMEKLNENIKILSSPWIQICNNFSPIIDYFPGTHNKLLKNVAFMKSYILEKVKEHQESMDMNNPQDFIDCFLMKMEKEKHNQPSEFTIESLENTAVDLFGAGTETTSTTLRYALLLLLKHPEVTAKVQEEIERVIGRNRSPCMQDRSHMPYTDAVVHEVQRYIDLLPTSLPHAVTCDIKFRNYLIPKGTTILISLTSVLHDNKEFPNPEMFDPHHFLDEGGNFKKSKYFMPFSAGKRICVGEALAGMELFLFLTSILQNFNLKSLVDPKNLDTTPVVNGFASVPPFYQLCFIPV
Sequence of Cytochrome P450 2D6 (P10635 whole entry): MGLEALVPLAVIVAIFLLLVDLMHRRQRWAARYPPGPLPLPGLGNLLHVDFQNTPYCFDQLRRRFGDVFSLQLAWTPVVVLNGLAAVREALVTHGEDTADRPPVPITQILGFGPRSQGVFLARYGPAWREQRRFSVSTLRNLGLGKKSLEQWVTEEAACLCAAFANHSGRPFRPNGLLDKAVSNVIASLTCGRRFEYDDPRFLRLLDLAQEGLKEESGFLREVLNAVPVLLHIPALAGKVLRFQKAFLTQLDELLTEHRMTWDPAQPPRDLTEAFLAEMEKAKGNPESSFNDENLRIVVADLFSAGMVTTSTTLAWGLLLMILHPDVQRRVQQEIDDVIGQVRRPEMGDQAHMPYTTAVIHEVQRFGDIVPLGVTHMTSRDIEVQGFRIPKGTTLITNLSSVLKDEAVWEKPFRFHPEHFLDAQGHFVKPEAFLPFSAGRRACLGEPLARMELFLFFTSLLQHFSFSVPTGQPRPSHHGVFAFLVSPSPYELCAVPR
Sequence of Cytochrome P450 3A4 (P08684 whole entry): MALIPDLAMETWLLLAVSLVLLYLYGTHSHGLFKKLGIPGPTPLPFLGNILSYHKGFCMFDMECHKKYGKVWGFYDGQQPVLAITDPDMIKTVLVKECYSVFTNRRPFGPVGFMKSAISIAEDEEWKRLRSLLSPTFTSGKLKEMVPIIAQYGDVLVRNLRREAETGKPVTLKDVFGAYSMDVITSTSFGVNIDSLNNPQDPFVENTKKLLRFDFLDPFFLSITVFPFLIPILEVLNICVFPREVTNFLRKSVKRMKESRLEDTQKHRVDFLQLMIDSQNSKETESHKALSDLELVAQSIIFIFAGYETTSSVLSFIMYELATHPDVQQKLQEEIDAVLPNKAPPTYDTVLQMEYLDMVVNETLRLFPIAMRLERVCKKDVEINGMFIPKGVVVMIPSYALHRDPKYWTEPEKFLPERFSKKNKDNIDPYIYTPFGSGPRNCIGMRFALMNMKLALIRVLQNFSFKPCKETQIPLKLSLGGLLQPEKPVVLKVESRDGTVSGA

Consider `C[C@@H](NC(=O)c1ccc2c(c1)nc(-c1ccoc1)n2C1CCCCC1)C(=O)Nc1ccc2[nH]c(C(=O)O)cc2c1`, for which the half-inhibitory concentration (IC50) in data set [1] amounted to 60 nM. This compound came in with an EC50 in data set [2] of over 40000 nM.

Turning to `CC(NC(=O)c1ccc2c(c1)nc(-c1ccoc1)n2C1CCCCC1)C(=O)Nc1ccc(CC(=O)O)cc1` (racemic), it took 1520 nM to reach half-maximal inhibition in data set [1] (IC50).

On to `Cn1c(-c2ccoc2)c(C2CCCCC2)c2ccc(C(=O)N[C@@H](Cc3c[nH]c4ccc(O)cc34)c3cscn3)cc21`, for which 100 nM corresponded to half-maximal inhibition in data set [1] (IC50). In [2], the EC50 was determined as 50 nM.

`CC(NC(=O)c1ccc2c(c1)nc(-c1ccoc1)n2C1CCCCC1)C(=O)Nc1ccc(C(=O)O)cc1` (racemic) returned an IC50 in [1] of 390 nM. The same compound displayed an EC50 in data set [2] of 30000 nM.

With `C[C@@H](NC(=O)c1ccc2c(c1)nc(-c1ccoc1)n2C1CCCCC1)C(=O)Nc1ccc(/C=C/C(=O)O)cc1`, the IC50 in data set [3] is over 30000 nM; in data set [1], 130 nM; in data set [7] it was over 30000 nM; in [8], over 30000 nM; in [10], over 30000 nM; in data set [11], 12300 nM. In data set [4], the half-life at 10 µM is 44 min. The outcome in data set [5] and in [6] was inactive. The same compound returned a log distribution coefficient (logD) in data set [9] of 2.2. The concentration for a half-maximal effect (EC50) in data set [2] came out at 6900 nM. This compound also had a solubility in [12] of 171 µg/mL (≈ 325 µM).

For `CC(NC(=O)c1ccc2c(c1)nc(-c1ccoc1)n2C1CCCCC1)C(=O)Nc1ccc(-c2ccc(C(=O)O)o2)cc1` (racemic), the IC50 in data set [1] came out at 450 nM. In data set [2], the EC50 amounted to 28000 nM.

On to `C[C@@H](NC(=O)c1ccc2c(c1)nc(-c1ccoc1)n2C1CCCCC1)C(=O)Nc1ccc2oc(C(=O)O)cc2c1`, for which the IC50 in data set [1] is 90 nM. Moreover, the EC50 in data set [2] is over 42000 nM.

`O=C(O)COc1ccc2[nH]cc(C[C@H](NC(=O)c3ccc4c(c3)nc(-c3ccoc3)n4C3CCCCC3)C(=O)O)c2c1` registered an IC50 in data set [1] of 19 nM.

On to `CC(NC(=O)c1ccc2c(c1)nc(-c1ccoc1)n2C1CCCCC1)C(=O)Nc1ccc(/C=C/C(=O)O)cc1` (racemic), for which the half-maximal inhibitory concentration (IC50) in [1] was 340 nM. A half-maximal response in [2] (EC50) required 13000 nM.

For `CC(=O)COc1ccc(NC(=O)C(C)NC(=O)c2ccc3c(c2)nc(-c2ccoc2)n3C2CCCCC2)cc1` (racemic), the half-inhibitory concentration (IC50) in data set [1] is 900 nM.

`CC[C@@H](NC(=O)c1ccc2c(c1)nc(-c1ccoc1)n2C1CCCCC1)C(=O)Nc1ccc(/C=C/C(=O)O)cc1`: the IC50 in data set [1] worked out at 400 nM. The same compound returned an EC50 in [2] of 6500 nM.

As for `CC(NC(=O)c1ccc2c(c1)nc(-c1ccoc1)n2C1CCCCC1)C(=O)Nc1cccc(/C=C/C(=O)O)c1` (racemic), the IC50 in [1] worked out at 900 nM.

As to `O=C(N[C@@H](Cc1c[nH]c2ccc(O)cc12)c1cscn1)c1ccc2c(c1)nc(-c1ccoc1)n2C1CCCCC1`, the concentration for half-maximal inhibition (IC50) was 4000 nM in [3]; 300 nM in data set [1]; 2400 nM in data set [7]; over 30000 nM in data set [8]; 2300 nM in data set [10]; 400 nM in data set [11]. The same compound displayed a t1/2 in data set [13] of 26 min. This compound came in with a logD in [9] of 3.8. This compound also came in with a half-maximal effective concentration (EC50) in data set [2] of 1700 nM. Moreover, the solubility in data set [12] was under 0.07 µg/mL.

Compound `C[C@H](NC(=O)c1ccc2c(c1)nc(-c1ccoc1)n2C1CCCCC1)C(=O)Nc1ccc(/C=C/C(=O)O)cc1` yielded an IC50 in data set [1] of 360 nM. In [2], this compound came in with an EC50 of 25000 nM.

Turning to `CC(NC(=O)c1ccc2c(c1)nc(-c1ccoc1)n2C1CCCCC1)C(=O)Nc1cccc(C(=O)O)c1` (racemic), it took 1610 nM to reach half-maximal inhibition in [1] (IC50).

For the compound `O=C(O)/C=C/c1ccc(NC(=O)CNC(=O)c2ccc3c(c2)nc(-c2ccoc2)n3C2CCCCC2)cc1`, the IC50 in data set [1] was 280 nM. In data set [2], this compound had an EC50 of 41000 nM.
